Laboratory results reported in patent US4218456A, “1-(4-Fluorophenyl)-4-(1,2,3,6-tetrahydro-4-phenoxy-1-pyridinyl)-butanones” (Warner-Lambert Company, priority 1978, dated 1980).

Test system: dopamine receptor binding sites
Test: 3H-Haloperidol Receptor Binding Assay (HRBA)
Conditions: at 10^-8 mol/L concentration in vitro
Text: As with other known antipsychotics, the compounds of formula I readily displace ^3 H-haloperidol from dopamine receptor binding sites in the ^3 H-Haloperidol Receptor Binding Assay (HRBA). […] The HRBA screen is described by I. Creese, D. R. Burt and S. H. Snyder, Science, 192, 481 (1976) and P. Seeman, T. Lee, M. Chan-Wong and K. Wong, Nature, 261, 717 (1976).

O=C(CCCN1CC=C(Oc2ccc(F)cc2)CC1)c1ccc(F)cc1 [Example 9, 4-[4-(4-Fluorophenoxy)-1,2,3,6-tetrahydro-1-pyridinyl]-1-(4-fluorophenyl)-1-butanone(Z)-2-Butenedioate]
inhibition of 3H-haloperidol: 87%
